In publication PMC7551886, “Antitumour Effects of Astaxanthin and Adonixanthin on Glioblastoma” (Marine Drugs, 2020):

Tests used:
[1] = tested on: GL261 cells; experiment: Wound healing (cell migration) assay in GL261; assay type: cell-based, mouse; details: GL261, 10 µM, 48 h
Protocol: The cell migration assay was conducted as previously described. GL261 cells and U251 cells (2.0 × 10^4 cells per well) were plated in a 12-well plate (BD Biosciences, Tokyo, Japan) with culture medium supplemented with 10% FBS. After 24 h of incubation, the medium was changed to DMEM containing 1% FBS. After 6 h, wounds were scratched by a P1000 pipette tip and washed with phosphate-buffered saline (PBS) to eliminate cell debris. Then, fresh medium was added with 10 µM astaxanthin or adonixanthin. Pictures were taken at 48 h and these scratched areas were measured using an All-in-One Fluorescence Microscope (BZ-X710; Keyence, Osaka, Japan). The cell migration rate was measured the area of the wound before migration (S0) and after migration (S1) and calculated […]. The control group was then standardized to be 100%. Wound widths at 0 h were created within 1 to 1.5 mm and data were excluded if they were not suitable for that width.

[2] = tested on: cyclin D1; experiment: Immunoblotting, cyclin D1 expression in GL261; assay type: cell-based, mouse; details: GL261, 10 µM, 48 h
Protocol: (§1) GL261 cell was seeded at 2.5 × 10^4 cells per well in 24-well plates with culture medium supplemented with 10% FBS. After 24 h of incubation, the medium was changed to DMEM containing 10% FBS and 0.1%DMSO PBS, 300 μM temozolomide, 10 μM astaxanthin, or 10 μM adonixanthin was added for 6 and 48 h. Cells were lysed in a special buffer (RIPA buffer R0278; Sigma-Aldrich, St. Louis, MO, USA) with a protease inhibitor cocktail (Sigma-Aldrich), phosphatase inhibitor cocktails 2 and 3 (Sigma-Aldrich), and sample buffer (Wako, Osaka, Japan). The protein concentration was determined by comparison with a known concentration of bovine serum albumin using the BCA Protein Assay Kit (Thermo Fisher Scientific). The amount of total protein was 2 μg. […] The band intensity was […] using an Immuno Star LD (Wako). Band intensity was measured using an LAS-4000 UV mini Luminescent Image Analyzer (Fujifilm, Tokyo Japan) and Multi Gauge Version 3.0 (Fujifilm). The phosphorylation of ERK1/2, Akt, and p38 MAPK was measured by normalizing against total ERK1/2, total Akt, and total p38 MAPK. […]

[3] = tested on: fibronectin; experiment: Immunoblotting, fibronectin expression in GL261; assay type: cell-based, mouse; details: GL261, 10 µM, 48 h
Protocol: as §1

[4] = tested on: intracellular ROS in GL261 cells; experiment: Reactive oxygen species assay (CM-H2DCFDA); assay type: cell-based, mouse; details: GL261, 1 and 10 µM, 6 h
Protocol: Intracellular radical activation within GL261 cells was measured with 5-(and-6)-chloromethyl—2′,7′-dichlorodihydrofluorescein diacetate, acetyl ester (CM-H2DCFDA; Thermo Fisher Scientific, MA, USA). Six hours after treatment of temozolomide, astaxanthin, or adonixanthin, CM-H2DCFDA was added to the culture medium and incubated at 37 °C for 1 h under shading in GL261. Fluorescence was measured using a Varioscan Flash 2.4 microplate reader (Thermo Fisher Scientific, MA, USA) at 485 (excitation)-535 nm (emission). Measurements were performed 0, 30, and 60 min after the addition of CM-H2DCFDA.

[5] = tested on: GL261 cells (intracranial injection); experiment: Murine orthotopic glioblastoma model; assay type: in vivo, mouse; details: oral 10 and 30 mg/kg for 10 days, 2 weeks after GL261 cell injection
Protocol: Murine glioblastoma cell (GL261) transplantation was performed as previously described. Briefly, mice received an intracranial injection of 1 × 10^5 cells in 2 µL of PBS using a Hamilton microliter syringe at the following coordinates: 1 mm anterior, 2 mm lateral (left of middle) to bregma, at a depth of 3 mm from the dural surface. This protocol was completed using a stereotactic frame. In the experiment of the murine orthotopic glioblastoma model, oral administration of each astaxanthin (10 and 30 mg/kg) and adonixanthin (10 and 30 mg/kg) was initiated 3 days after intracranial injection of GL261 cells and was continued for 10 days. In the experiment of the brain tissue absorption with oral astaxanthin or adonixanthin, after one week of adaptation, ICR mice were randomly divided into the following three groups: control group, astaxanthin group (50 mg/kg), and adonixanthin group (50 mg/kg). Mice were orally administered each reagent suspended in olive oil (5 mL/kg) by the daily single dose for 10 days. The control group was treated by olive oil alone (5 mL/kg). Mice were euthanized and […] perfused with cold saline for 2 min at room temperature. […] Pictures were taken using an All-in-One Fluorescence Microscope (BZ-X710; Keyence, Osaka, Japan). We assessed the maximum cross-sectional area of the tumour and tumour volume as described previously.

[6] = known; no reference given; cited from earlier work
[7] = tested on: hippocampal inflammation; parameters: method as in PMID 28017669; details: diabetic mice, oral 25 mg/kg ref 45; cited from earlier work

| Structure (SMILES) | suppression of cell migration [1] [%] | expression of cyclin D1 [2] | expression of fibronectin [3] | amount of intracellular ROS [4] | tumour enlargement (tumour area and volume) [5] | dose that does not show adverse effects even with long-term administration [6] [mg/kg] | hippocampal inflammation [7] |
| --- | --- | --- | --- | --- | --- | --- | --- |
| CC1=C(/C=C/C(C)=C/C=C/C(C)=C/C=C/C=C(C)/C=C/C=C(C)/C=C/C2=C(C)C(=O)[C@@H](O)CC2(C)C)C(C)(C)C[C@H](O)C1 [Adonixanthin, adonixanthin] | 13.74 ± 4.01 | decreased | decreased | decreased | significantly suppressed tumour enlargement | – | – |
| CC1=C(/C=C/C(C)=C/C=C/C(C)=C/C=C/C=C(C)/C=C/C=C(C)/C=C/C2=C(C)C(=O)[C@@H](O)CC2(C)C)C(C)(C)C[C@H](O)C1=O [Astaxanthin, astaxanthin] | 8.84 ± 2.09 | decreased | – | decreased | significantly suppressed tumour enlargement | 50 | inhibited hippocampal inflammation |
